Assay [1] deals with T1, Ami1 (Mycobacterium tuberculosis, UniProt I6Y4D2). Nature of the assay: Differential scanning fluorimetry (DSF, thermal shift) with Ami1. It counts as binding. Particulars: for Kd: 10 μM Ami1, fitted with Thermott, triplicate, read-out: dissociation constant (Kd); for increase of the melting temperature (Tm) of the amidase: compared to Tm of the protein in the absence of any compound. As to the method:
DSF assays were conducted using a QuantStudio3 real-time PCR system from Thermo Fisher Scientific, with a MicroAmp Fast 96-well reaction plate and covered with the MicroAmp Optical Adhesive Film (both from Thermo Fisher Scientific). The final reaction volume in each well was 20 μL, containing 10 μM Ami1 in buffer (20 mM HEPES pH 7.5, 100 mM NaCl, 1% DMSO) and 5× SYPRO Orange, either in the absence or presence of various concentrations of compounds. As a control, identical experiments were performed without protein. The temperature was increased from 25 to 99 °C at a gradual rate of 0.2 °C per 12.5 s. Data analysis and dissociation constants (Kd) were determined using the Thermott web application (https://thermott.com).[37],[38] Melting curves were exported from Thermott and visualized using the GraphPad Prism program. All experiments were performed by triplicate.

Assay [2] concerns the target T1, Ami1. Particulars: 10 mM EDTA; cited from earlier work.
Assay [3] deals with T1, Ami1. It counts as binding. Conditions: ITC.
Assay [4] has as its system Ami1Mab. Also on record: method as in PMID 33158165. Particulars: cited from earlier work.

“And” between values parts separate entries of the source, which are not always exact repeats. Equal entries are not always repeated.

The source of these data is article PMC11579945, “Identification of Potential Inhibitors of Mycobacterium tuberculosis Amidases: An Integrated In Silico and Experimental Study” (ACS Omega, 2024).

T1 sequence (I6Y4D2 25-241 limits assumed): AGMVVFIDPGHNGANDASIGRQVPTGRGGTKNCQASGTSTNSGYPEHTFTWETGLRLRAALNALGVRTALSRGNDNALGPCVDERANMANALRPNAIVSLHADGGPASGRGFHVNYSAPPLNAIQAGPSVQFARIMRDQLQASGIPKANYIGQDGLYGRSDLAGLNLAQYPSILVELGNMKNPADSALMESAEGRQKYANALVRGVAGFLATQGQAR

`O=C(NNc1ccc([N+](=O)[O-])cc1[N+](=O)[O-])c1ccccc1` [1a, N′-(2,4-Dinitrophenyl)benzohydrazide]: the Kd in assay [1] (DSF) was 2.71 ± 0.55 µM. For `COc1ccc(C(=O)NNc2ccc([N+](=O)[O-])cc2[N+](=O)[O-])cc1` [1b, N′-(2,4-Dinitrophenyl)-4-methoxybenzohydrazide], in assay [1] (DSF), the Kd stood at 4.27 ± 1.13 µM. Take `O=C(NNc1ccc([N+](=O)[O-])cc1[N+](=O)[O-])c1ccc(Cl)cc1` [1c, 4-Chloro-N′-(2,4-dinitrophenyl)benzohydrazide]: the Kd in assay [1] (DSF) stood at 9.07 ± 1.88 µM. As for `O=C(NNc1ccc([N+](=O)[O-])cc1[N+](=O)[O-])c1ccc(F)cc1` [1d, N′-(2,4-Dinitrophenyl)-4-fluorobenzohydrazide], the Kd in assay [1] (DSF) is 1.65 ± 0.39 µM.

For the compound `O=C(C=Cc1ccccc1)NNc1ccc([N+](=O)[O-])cc1[N+](=O)[O-]` [1e, N′-(2,4-Dinitrophenyl)cinnamohydrazide], in assay [1] (DSF), the “increase in Kd compared with derivates 1a–1d” value is reported as 10 fold and the Kd is 36.1 ± 7.1 µM.

As to `O=C(NNc1ccc([N+](=O)[O-])cc1[N+](=O)[O-])C1CC1` [1f, N′-(2,4-Dinitrophenyl)cyclopropanecarbohydrazide], the “interaction with Ami1” value in assay [1] (DSF dose-response) was “no interaction”. With `O=C(O)CN(CCN(CC(=O)O)CC(=O)O)CC(=O)O` [EDTA], in assay [2], the “hydrolytic activity of Ami1 after treatment” value was “abolished”. As for `O=C(NNc1ccc([N+](=O)[O-])cc1[N+](=O)[O-])C1CC1c1ccccc1` (stereo not shown) [compound 1], in assay [1] (DSF), the Kd was 6.69 ± 0.79 µM. For the same compound, the “increase of the melting temperature (Tm) of the amidase” value in assay [1] is “approximately 2 °C”.

Turning to `Ic1ccccc1-c1nn[nH]n1` [compound 5], the Kd in assay [1] (DSF) is 39 ± 6.1 µM. In addition, in assay [1], the “increase of the melting temperature (Tm) of the amidase” value is “approximately 2 °C”. Besides, in assay [3] (25 °C, pH 7.5), the ΔGb entry is “–6.02 kcal/mol” and the ΔHb entry was “–0.37 ± 0.08 kcal/mol”. Also, the “n (stoichiometry)” value in assay [3] (single binding-site model) was 0.7 and 0.7 ± 0.1. For `Nc1ccccc1-c1nnn[nH]1` [inhibitor II], the “concentration from which inhibition of the hydrolytic activity of Ami1Mab was observed” value in assay [4] was not below 800 µM.
